{"source": "patent US8101576B2", "about": "“Compounds and their effects on feeding behaviour” (priority 2006, dated 2012)", "key": {"[1]": {"assay": "Inhibition of food intake, intraperitoneal injection to fasted mice", "type": "in vivo, C57BL/6 mice", "procedure": "(§1) Animals: All animal procedures were approved by the British Home Office Animals (Scientific Procedures) Act 1986 (Project License number 70/5516).\n(§2) Study protocol: C57BL/6 mice (20-35 g) were injected with the peptide under investigation following a 20-hour fast. Wistar rats were injected following a 24-hour fast. […] A pre-weighed quantity of chow was presented immediately after injection."}, "[2]": {"assay": "Inhibition of food intake, subcutaneous injection to fasted mice", "type": "in vivo, C57BL/6 mice", "settings": "20 nmoles/kg", "procedure": "Animals: All animal procedures were approved by the British Home Office Animals (Scientific Procedures) Act 1986 (Project License number 70/5516). Male C57BL/6 mice and male Wistar rats were maintained in individual cages under controlled temperature (21-23° C.) with ad libitum access to standard chow (RMI diet, SDS Ltd, Witham, Essex, UK) and to water. The light cycle was 12 hours light and 12 hours dark with ‘dawn’ at 07:00, lights full on at 07:30, ‘dusk’ at 19:00 with lights off at 19:30. These times were fixed in the animal facility, All animals were handled almost daily for on average nine days prior to the first study. During the acclimatization period, mice received two saline injections at least two days apart in order to further acclimatize to the procedure on the study days. It was found in rats that minimising the number of injections provided an optimal response, and so acclimatization injections were not used.\nStudy protocol: C57BL/6 mice (20-35 g) were injected with the peptide under investigation following a 20-hour fast. Wistar rats were injected following a 24-hour fast. Typically 6 to 10 rodents were used per experimental group. Injections were typically administered at 9:00. A pre-weighed quantity of chow was presented immediately after injection. The remaining food was measured at regular time intervals (e.g. 1, 2, 3, 4, 6, 8, 24, 32 and 48 hours following injection) and food intake calculated.\nThe feeding effect of the following analogue of oxyntomodulin was investigated: PEPTIDE NO: 355 [SEQ ID NO:355]. The analogue was administered at a dose of […] by subcutaneous injection to a group of fasted mice. A further group was administered saline (control). Mean cumulative food intake over the course of 4 hours is shown in comparison to saline in FIG. 40. […] The food intake suppression continues for the whole 4 hour period; that is to say that the food intake over the 4 hour period is lower than in the saline control.\nThe feeding effect of the following analogue of oxyntomodulin was investigated: PEPTIDE NO: 130 [SEQ ID NO: 130]. […]"}, "[3]": {"assay": "Inhibition of food intake, subcutaneous injection to fasted rats", "type": "in vivo, Wistar rats", "settings": "for Mean cumulative food intake in comparison to saline control / food intake in comparison to control group treated with native oxyntomodulin: over 24 hours", "procedure": "as §1, §2"}}, "note": "Square brackets hold non-standard residues; d marks the D form. Ends that are not written are not given here. * marks the point of attachment. Arachidoyl = CCCCCCCCCCCCCCCCCCCC(=O)*; Palmitoyl = CCCCCCCCCCCCCCCC(=O)*; Myristoyl = CCCCCCCCCCCCCC(=O)*"}
{"substance": "D-His Ala Gln Gly Thr Phe Thr Ser Asp Tyr Ser Lys Tyr Leu Glu Gln Glu Ile Val Lys Tyr Phe Leu Gln Trp Leu Lys Asn Ala Gly Pro Ser Lys Asn Asn Ile Ala ([dH]AQGTFTSDYSKYLEQEIVKYFLQWLKNAGPSKNNIA) [PEPTIDE NO: 136]", "values": [{"measurement": "Mean cumulative food intake in comparison to saline control", "setting": "[1]; 5 nmoles/kg, over 24 hours", "result": "potent and long acting suppression of food intake"}, {"measurement": "food intake in comparison to control group treated with native oxyntomodulin", "setting": "[1]; 5 nmoles/kg, over 24 hours", "result": "lower than in the control group treated with native oxyntomodulin"}]}
{"substance": "D-His Ala Gln Gly Thr Phe Thr Ser Asp Tyr Ser Lys Tyr Leu Glu Gln Glu Leu Val Lys Tyr Phe Ile Gln Trp Leu Lys Asn Ala Gly Pro Ser Lys Asn Asn Ile Ala ([dH]AQGTFTSDYSKYLEQELVKYFIQWLKNAGPSKNNIA) [PEPTIDE NO: 130]", "values": [{"measurement": "food intake suppression continues for", "setting": "[2]; 24 hours observed", "result": "≥ 24", "unit": "h"}, {"measurement": "Mean cumulative food intake in comparison to saline control", "setting": "[2]; over 24 hours", "result": "potent and long acting suppression of food intake"}, {"measurement": "food intake in comparison to control group treated with native oxyntomodulin", "setting": "[2]; over 24 hours", "result": "lower than in the control group treated with native oxyntomodulin"}]}
{"substance": "D-His Ala Gln Gly Thr Phe Thr Ser Asp Tyr Ser Lys Tyr Leu glu Glu Glu Leu Val Lys Tyr Phe Ile Gln Trp Leu Met Asn Thr Lys Arg Asn Lys Asn Asn Ile Ala ([dH]AQGTFTSDYSKYLEEELVKYFIQWLMNTKRNKNNIA; not fully specified (residue 15)) [PEPTIDE NO: 108]", "values": [{"measurement": "Mean cumulative food intake in comparison to saline control", "setting": "[1]; 100 nmoles/kg, over 24 hours", "result": "potent and long acting suppression of food intake"}, {"measurement": "food intake in comparison to control group treated with native oxyntomodulin", "setting": "[1]; 100 nmoles/kg, over 24 hours", "result": "lower than in the control group treated with native oxyntomodulin"}]}
{"substance": "D-His Ser Gln Gly Thr Phe Thr Ser Asp Tyr Ser Lys Tyr Leu Asp Ser Arg Arg Ala Gln Asp Phe Val Gln Trp Leu Lys Asn Ala Gly Pro Ser Lys Asn Asn Ile Ala ([dH]SQGTFTSDYSKYLDSRRAQDFVQWLKNAGPSKNNIA) [PEPTIDE NO: 195]", "values": [{"measurement": "Mean cumulative food intake in comparison to saline control", "setting": "[1]; 800 nmoles/kg, over 24 hours", "result": "potent and long acting suppression of food intake"}, {"measurement": "food intake in comparison to control group treated with native oxyntomodulin", "setting": "[1]; 800 nmoles/kg, over 24 hours", "result": "lower than in the control group treated with native oxyntomodulin"}]}
{"substance": "D-His Ser Gln Gly Thr Phe Thr Ser Asp Tyr Ser Lys Tyr Leu Glu Glu Glu Leu Val Lys Tyr Phe Leu Gln Trp Leu Lys Asn Ala Gly Pro Ser Lys Asn Asn Ile Ala Glu Ala Lys ([dH]SQGTFTSDYSKYLEEELVKYFLQWLKNAGPSKNNIAEAK) [PEPTIDE NO: 210]", "values": [{"measurement": "Mean cumulative food intake in comparison to saline control", "setting": "[1]; 20 nmoles/kg, over 48 hours", "result": "potent and long acting suppression of food intake"}, {"measurement": "food intake in comparison to control group treated with native oxyntomodulin", "setting": "[1]; 20 nmoles/kg, over 48 hours", "result": "lower than in the control group treated with native oxyntomodulin"}]}
{"substance": "D-His Ser Gln Gly Thr Phe Thr Ser Asp Tyr Ser Lys Tyr Leu Glu Glu Glu Leu Val Lys Tyr Phe Leu Gln Trp Leu Lys Asn Ala Gly Pro Ser Lys Asn Asn Ile Ala Glu Ala Lys-arachidoyl ([dH]SQGTFTSDYSKYLEEELVKYFLQWLKNAGPSKNNIAEAK(Arachidoyl)) [PEPTIDE NO: 214]", "values": [{"measurement": "Mean cumulative food intake in comparison to saline control", "setting": "[1]; 400 nmoles/kg, over 48 hours", "result": "potent and long acting suppression of food intake"}, {"measurement": "food intake in comparison to control group treated with native oxyntomodulin", "setting": "[1]; 400 nmoles/kg, over 48 hours", "result": "lower than in the control group treated with native oxyntomodulin"}]}
{"substance": "D-His Ser Gln Gly Thr Phe Thr Ser Asp Tyr Ser Lys Tyr Leu Glu Glu Glu Leu Val Lys Tyr Phe Leu Gln Trp Leu Lys Asn Ala Gly Pro Ser Lys Asn Asn Ile Ala Glu Ala Lys-myristoyl ([dH]SQGTFTSDYSKYLEEELVKYFLQWLKNAGPSKNNIAEAK(Myristoyl)) [PEPTIDE NO: 211]", "values": [{"measurement": "Mean cumulative food intake in comparison to saline control", "setting": "[1]; 200 nmoles/kg, over 48 hours", "result": "potent and long acting suppression of food intake"}, {"measurement": "food intake in comparison to control group treated with native oxyntomodulin", "setting": "[1]; 200 nmoles/kg, over 48 hours", "result": "lower than in the control group treated with native oxyntomodulin"}]}
{"substance": "D-His Ser Gln Gly Thr Phe Thr Ser Asp Tyr Ser Lys Tyr Leu Glu Glu Glu Leu Val Lys Tyr Phe Leu Gln Trp Leu Lys Asn Ala Gly Pro Ser Lys Asn Asn Ile Ala Glu Ala Lys-palmitoyl ([dH]SQGTFTSDYSKYLEEELVKYFLQWLKNAGPSKNNIAEAK(Palmitoyl)) [PEPTIDE NO: 213]", "values": [{"measurement": "Mean cumulative food intake in comparison to saline control", "setting": "[1]; 400 nmoles/kg, over 48 hours", "result": "potent and long acting suppression of food intake"}, {"measurement": "food intake in comparison to control group treated with native oxyntomodulin", "setting": "[1]; 400 nmoles/kg, over 48 hours", "result": "lower than in the control group treated with native oxyntomodulin"}]}
{"substance": "HSQGTFTSDYSKYLEEELVKYFLQWLKNAGPSKNNIA [PEPTIDE NO: 4]", "values": [{"measurement": "Mean cumulative food intake in comparison to saline control", "setting": "[1]; 5 nmoles/kg, over 24 hours", "result": "potent and long acting suppression of food intake"}, {"measurement": "food intake in comparison to control group treated with native oxyntomodulin", "setting": "[1]; 5 nmoles/kg, over 24 hours", "result": "lower than in the control group treated with native oxyntomodulin"}]}
{"substance": "PEPTIDE NO: 216: analogue of oxyntomodulin with Asn34 replaced by Asp34; sequence shown only in FIG. 1 (HSQGTFTSDYSKYLEEELVKYFLEWLKNAGPSKDNIA)", "values": [{"measurement": "food intake suppression continues for", "setting": "[3]; 10 nmoles/kg, 24 hours observed", "result": "≥ 24", "unit": "h"}, {"measurement": "Mean cumulative food intake in comparison to saline control", "setting": "[3]; 10 nmoles/kg", "result": "potent and long acting suppression of food intake"}, {"measurement": "food intake in comparison to control group treated with native oxyntomodulin", "setting": "[3]; 10 nmoles/kg", "result": "lower than in the control group treated with native oxyntomodulin"}]}
{"substance": "[dH]ADGWFWSDYSKYLDSRRAQDFVQWLKNAGPSKNNIA [PEPTIDE NO: 199]", "values": [{"measurement": "Mean cumulative food intake in comparison to saline control", "setting": "[3]; 500 nmoles/kg", "result": "potent and long acting suppression of food intake"}, {"measurement": "food intake in comparison to control group treated with native oxyntomodulin", "setting": "[3]; 500 nmoles/kg", "result": "lower than in the control group treated with native oxyntomodulin"}]}
